In experiment [1] the target is T1, c-Met receptor tyrosine kinase, GST-c-Met(969-1390) (Homo sapiens, UniProt P08581).
T1 construct: made in house
The experiment in a line: EPK c-Met profiling assay (LanthaScreen TR-FRET kinase assay). The class given is biochemical. To be noted: 2 μM ATP, 0.3 nM enzyme, 60 minutes at room temperature. As to the method: A number of compounds of the present invention were assayed in an antibody based kinase phosphorylation assay as follows.
Epk c-Met Profiling Assay:
The EPK kinase assay for c-Met receptor tyrosine kinase was developed, using the purified recombinant GST-fusion protein, containing the cytoplasmic domain of the enzyme. GST-c-Met(969-1390) was purified by affinity chromatography.
The kinase assay is based on the LanthaScreen™ technology. LanthaScreen™ is the detection of Time-Resolved Fluorescence Resonance Energy Transfer (TR-FRET) using lanthanide chelates to measure interactions between various binding partners. In a TR-FRET kinase assay, a long-lifetime lanthanide donor species is conjugated to an antibody that specifically binds to a phosphorylated product of a kinase reaction that is labeled with a suitable acceptor fluorophore. This antibody-mediated interaction brings the lanthanide donor and the acceptor into proximity such that resonance energy transfer can take place, resulting in a detectible increase in the FRET signal.
The kinase reactions were performed in 384 well microtiter plates in a total reaction volume of 9.05 μL. The assay plates were prepared with 0.05 μL per well of test compound in the appropriate test concentration, as described under “preparation of compound dilutions”. The reactions were started by combining 4.5 μL of ATP solution with 4.5 μL of enzyme-substrate mix (consisting of kinase and substrate). The final concentrations in the kinase reactions were 35 mM Tris/HCl, 1 mM DTT, 0.025% Tween20, 10 μM sodium orthovanadate, 0.25% BSA, 0.6% DMSO, 10 mM MgCl2, 3 mM MnCl2, 2 μM ATP, 50 nM Fluorescein-PolyEAY, and 0.3 nM enzyme.
The reactions were incubated for 60 minutes at room temperature and stopped by adding 4.5 μL of stop buffer (50 mM EDTA, 0.04% NP40, 20 mM Tris/HCl).
Subsequently 4.5 μL of detection mix (50 mM Tris/HCl, 2 mM DTT, 0.05% Tween20, 20 μM sodium orthovanadate, 1% BSA, 1.72 μg/mL Tb-PY20 antibody) were added to the stopped reactions. After 30 minutes incubation at room temperature, the plates were measured in a BMG Pherastar fluorescence reader. The effect of compound on the enzymatic activity was in all assays obtained from the linear progress curves and determined from one reading (end point measurement).
Preparation of Compound Dilutions
Test compounds were dissolved in DMSO (10 mM) and transferred into 1.4 mL flat bottom or V-shaped Matrix tubes carrying a unique 2D matrix. The stock solutions were stored at −20° C. if not used immediately. For the test procedure the vials were defrosted and identified by a scanner whereby a working sheet was generated that guided the subsequent working steps.
Compound dilutions were made in 96 well plates. This format enabled the assay of maximally 40 individual test compounds at 8 concentrations (single points) including 4 reference compounds. The dilution protocol included the production of “pre-dilution plates”, “master plates” and “assay plates”.
Pre-dilution plates: 96 polypropylene well plates were used as pre-dilution plates. A total of 4 pre-dilution plates were prepared including 10 test compounds each on the plate positions A1-A10, one standard compound at A11 and one DMSO control at A12. All dilution steps were done on a HamiltonSTAR robot.
Master plates: 100 μL of individual compound dilutions including standard compound and controls of the 4 “pre-dilution plates” were transferred into a 384 “master plate” including the following concentrations 1′820, 564, 182, 54.6, 18.2, 5.46, 1.82 and 0.546 μM, respectively in 90% of DMSO.
Assay plates: Identical “assay plates” were then prepared by pipetting 50 nL each of compound dilutions of the “master plates” into 384-well “assay plates” by means of a HummingBird 384-channel dispenser. These plates were used directly for the assay which was performed in a total volume of 9.05 μL. […]
For orientation: TR-FRET usually uses a lanthanide donor and a delayed reading to cut background.

The test system of experiment [2] is MET-amplified gastric cancer cell line GTL-16. The experiment in a line: GTL-16 proliferation assay (MTS). The class given is cell-based. The note with it: Homo sapiens, GTL-16 cells, 72 h incubation. On the procedure: (§1) C-Met Dependent Cellular Assays
(§2) A number of compounds of the present invention were assayed in a c-Met dependent proliferation and phosphorylation assay as follows.
GTL-16 proliferation assay: the MET-amplified gastric cancer cell line GTL-16 was grown under standard cell culture conditions in DMEM [Dulbecco's Modified Eagle Medium] (high glucose) supplemented with 10% heat-inactivated fetal calf serum and 2 mM L-glutamine. For proliferation assays, cells were seeded at 3000 per well in 96-well-plates. 24 h later, a 10-point dilution series of each compound (3-fold steps, ranging from […]) was prepared in DMSO. Compound were then diluted 1000-fold in growth media in two steps and added to cells in triplicates, resulting in a final volume of […] per well and maximal final compound concentrations of […]. A DMSO-only control was included. Cells were incubated for 72 h and the amount of viable cells was then measured by adding […] of MTS reagent (CellTiter 96® AQueous Non-Radioactive Cell Proliferation Assay, Promega), further incubation for 30′, and reading the optical density at 490 nm.

The target of another experiment is T2, c-Met (Homo sapiens, UniProt P08581).
T2 construct: adapted to measure the phosphorylation of endogenous cellular proteins in cell lysates; endogenous in cells; host or cells: GTL-16
T2 sequence (P08581 25-1390): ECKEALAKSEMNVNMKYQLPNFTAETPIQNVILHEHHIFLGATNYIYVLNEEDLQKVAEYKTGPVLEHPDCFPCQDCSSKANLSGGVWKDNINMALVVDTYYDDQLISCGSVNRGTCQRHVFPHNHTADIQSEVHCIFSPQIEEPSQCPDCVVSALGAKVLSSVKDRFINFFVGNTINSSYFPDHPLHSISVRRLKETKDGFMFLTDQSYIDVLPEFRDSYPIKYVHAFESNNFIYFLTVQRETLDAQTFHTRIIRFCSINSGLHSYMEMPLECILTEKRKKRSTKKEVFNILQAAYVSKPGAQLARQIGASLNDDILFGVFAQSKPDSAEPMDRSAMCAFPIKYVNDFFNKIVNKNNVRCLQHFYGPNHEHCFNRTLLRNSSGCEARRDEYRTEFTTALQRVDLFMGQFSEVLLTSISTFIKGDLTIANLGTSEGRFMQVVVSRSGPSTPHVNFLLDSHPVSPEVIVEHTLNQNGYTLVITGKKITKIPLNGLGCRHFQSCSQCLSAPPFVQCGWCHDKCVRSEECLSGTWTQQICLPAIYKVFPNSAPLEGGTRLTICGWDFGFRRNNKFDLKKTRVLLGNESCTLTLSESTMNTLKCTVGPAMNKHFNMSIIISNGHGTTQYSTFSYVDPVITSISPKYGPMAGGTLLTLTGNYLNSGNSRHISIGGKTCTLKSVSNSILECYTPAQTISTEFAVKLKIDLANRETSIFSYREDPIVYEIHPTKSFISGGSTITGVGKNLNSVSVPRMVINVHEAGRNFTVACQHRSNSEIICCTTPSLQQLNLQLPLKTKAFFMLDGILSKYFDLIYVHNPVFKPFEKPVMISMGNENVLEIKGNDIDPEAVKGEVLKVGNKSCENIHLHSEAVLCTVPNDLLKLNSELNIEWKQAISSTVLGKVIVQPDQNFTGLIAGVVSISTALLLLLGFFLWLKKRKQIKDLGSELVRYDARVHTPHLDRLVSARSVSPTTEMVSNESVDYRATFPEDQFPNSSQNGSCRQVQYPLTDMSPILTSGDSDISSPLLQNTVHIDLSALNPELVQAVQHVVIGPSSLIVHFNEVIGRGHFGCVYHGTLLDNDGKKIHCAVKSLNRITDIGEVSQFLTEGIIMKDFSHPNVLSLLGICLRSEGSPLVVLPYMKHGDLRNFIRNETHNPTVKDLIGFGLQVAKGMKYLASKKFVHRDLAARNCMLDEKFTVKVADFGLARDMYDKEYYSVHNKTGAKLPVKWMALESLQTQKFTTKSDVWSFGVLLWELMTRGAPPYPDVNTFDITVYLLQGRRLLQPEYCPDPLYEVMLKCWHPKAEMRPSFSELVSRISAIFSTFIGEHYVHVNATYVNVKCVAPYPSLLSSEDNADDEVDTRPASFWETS
The experiment in a line: GTL-16 c-Met autophosphorylation measured by AlphaScreen detection. Type of experiment: cell-based. To be noted: GTL-16 cells, 1 h incubation, AlphaScreen p-c-Met; read-out: GTL-16 IC50 c-Met phosphorylation. As to the method: as §1, §2
GTL-16 c-Met autophosphorylation measured by AlphaScreen® detection: the human MET-amplified gastric cancer cells GTL-16 were plated in 384-well plates at a density of 10′000 cells in 20 ul complete growth medium (DMEM high glucose supplemented with 10% (v/v) heat inactivated fetal calf serum and of 1 mM sodium pyruvate) and were incubated at […]/5% CO2/95% humidity for 20 h. The cells were washed and the 30 ul assay buffer (DMEM high glucose, 1 mM sodium pyruvate, 0.1% bovine serum albumine) was added. Compounds were diluted in 384-well compound plates to obtain 8-point serial dilutions for 40 test compounds in 90% DMSO, as well as a reference compound plus 16 high- and 16 low (inhibited) controls. These compound plates were prediluted 1:200 in assay buffer into a compound predilution plate and 10 ul of prediluted compound solution were transferred to the cell plate using a 384-well pipettor, resulting in a final DMSO concentration of 0.11%. Cells were incubated for 1 h at […]/5% CO2/95% humidity. The supernatant was removed, the cells were lysed in 25 ul of RIPA [radio immuno precipitation assay] lysis buffer supplemented with 2 mM sodium vanadate and a protease inhibitor cocktail, and cell plates were stored at −80° C.
For detection of p-c-Met, an AlphaScreen®-based assay was used. AlphaScreen® (Amplified Luminescent Proximity Homogeneous Assay, ALPHA, Perkin Elmer, U.S.A) is a non-radioactive bead-based proximity assay technology to study biomolecular interactions in a homogenous microtiter plate format. This technique has been adapted to measure the phosphorylation of endogenous cellular proteins in cell lysates by the use of specific antibody pairs against the total protein and a phospho-specific epitope. 5 ul of cell lysate was transferred to 384-well low volume Proxiplates for detection using a 384-well pipettor. First, 5 ul of a premix of an anti-c-Met antibody (0.25 ug/ml f.c.), a biotinylated PY20 antibody (phosphotyrosine antibody, 0.05 ug/ml f.c.) and AlphaScreen® Protein A-coupled acceptor beads (10 ug/ml f.c.) in RIPA buffer supplemented with 0.25% (v/w) TOP BLOCK, 2 mM sodium vanadate, and a protease inhibitor cocktail and was added, the plate was sealed, and incubated on a plate shaker for 2 hours at room temperature. Second, 2 ul of dilution buffer containing AlphaScreen® Streptavidin-coated donor beads (10 ug/ml f.c.) in RIPA buffer was added, and the plate was incubated on plate shaker as above for a further 2 hours. The plate was read on an AlphaScreen® compatible plate reader, using standard AlphaScreen® settings.
(Alpha assays give light when donor and acceptor beads are brought close together.)

T1 sequence (P08581 969-1390): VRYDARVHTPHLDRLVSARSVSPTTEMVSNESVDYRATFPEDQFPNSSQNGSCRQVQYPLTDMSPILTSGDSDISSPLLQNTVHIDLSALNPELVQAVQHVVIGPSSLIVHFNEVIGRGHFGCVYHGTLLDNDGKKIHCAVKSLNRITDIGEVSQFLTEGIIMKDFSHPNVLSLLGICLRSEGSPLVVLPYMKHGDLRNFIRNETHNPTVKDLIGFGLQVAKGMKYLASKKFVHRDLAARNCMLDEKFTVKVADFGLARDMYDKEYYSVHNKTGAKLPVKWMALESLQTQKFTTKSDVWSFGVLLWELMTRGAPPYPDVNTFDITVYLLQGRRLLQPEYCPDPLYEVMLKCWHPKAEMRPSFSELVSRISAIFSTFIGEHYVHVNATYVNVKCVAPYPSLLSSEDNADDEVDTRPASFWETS

Broadly, the IC50 is the concentration that gives 50% inhibition. For `CC(c1ccc2ncccc2c1F)c1cnc2ccc(N3CCN(C)C(=O)C3)nn12` (racemic) [Example 46, (rac)-4-{3-[1-(5-Fluoro-quinolin-6-yl)-ethyl]-imidazo[1,2-b]pyridazin-6-yl}-1-methyl-piperazin-2-one], the IC50 in experiment [1] was found to be 0.03 µM; in experiment [2], 0.047 µM; at c-Met, 0.015 µM.

As for `CC(c1ccc2ncccc2c1F)c1cnc2ccc(N3CCNC(=O)C3)nn12` (racemic) [Example 47, (rac)-4-{3-[1-(5-Fluoro-quinolin-6-yl)-ethyl]-imidazo[1,2-b]pyridazin-6-yl}-piperazin-2-one], the values for the IC50 (in experiment [1]; in experiment [2]; on c-Met) were 0.015 µM, 0.019 µM and 0.0055 µM, respectively.

`CC(=O)N1CCN(c2ccc3ncc(C(C)c4ccc5ncccc5c4F)n3n2)CC1` (racemic) [Example 48, (rac)-1-(4-{3-[1-(5-Fluoro-quinolin-6-yl)-ethyl]-imidazo[1,2-b]pyridazin-6-yl}-piperazin-1-yl)ethanone]: the IC50 was 0.14 µM in experiment [1], 0.168 µM in experiment [2] and 0.035 µM at c-Met.

With `CC(c1c(F)cc2c(cnn2C)c1F)c1cnc2ccc(N3CCN(C)C(=O)C3)nn12` (racemic) [Example 49, (rac)-4-(3-(1-(4,6-difluoro-1-methyl-1H-indazol-5-yl)ethyl)imidazo[1,2-b]pyridazin-6-yl)-1-methylpiperazin-2-one], the IC50 in experiment [1] was found to be 0.016 µM; in experiment [2], 0.029 µM; at c-Met, 0.0065 µM.

Take `CC(c1c(F)cc2c(cnn2C)c1F)c1cnc2ccc(N3CCNC(=O)C3)nn12` (racemic) [Example 51]: the IC50 in experiment [1] is 0.022 µM; in experiment [2], 0.016 µM; on c-Met it was 0.008 µM.

For `CC(c1c(F)cc2c(cnn2C(C)C)c1F)c1cnc2ccc(N3CCN(C)C(=O)C3)nn12` (racemic) [Example 56, (rac)-4-(3-(1-(4,6-difluoro-1-isopropyl-1H-indazol-5-yl)ethyl)imidazo[1,2-b]pyridazin-6-yl)-1-methylpiperazin-2-one], the IC50 in experiment [1] worked out at 0.027 µM; in experiment [2] it was 0.049 µM; at c-Met it was 0.007 µM.

On to `CC(c1c(F)cc2c(cnn2C(C)C)c1F)c1cnc2ccc(N3CCNC(=O)C3)nn12` (racemic) [Example 57, (rac)-4-(3-(1-(4,6-difluoro-1-isopropyl-1H-indazol-5-yl)ethyl)imidazo[1,2-b]pyridazin-6-yl)piperazin-2-one], for which the IC50 in experiment [1] amounted to 0.017 µM; in experiment [2], 0.036 µM; at c-Met, 0.009 µM.

In the case of `CC1C(=O)NCCN1c1ccc2ncc([C@@H](C)c3c(F)cc4ncccc4c3F)n2n1` (mixture of isomers) [Example 58, (rac)-4-{3-[(S)-1-(5,7-Difluoro-quinolin-6-yl)-ethyl]-imidazo[1,2-b]pyridazin-6-yl}-3-methyl-piperazin-2-one], the IC50 stood at 0.0027 µM in experiment [1], 0.0071 µM in experiment [2] and 0.0037 µM on c-Met.

As to `C[C@@H](c1c(F)cc2ncccc2c1F)c1cnc2ccc(N3CCN(C)CC3)nn12` [Example 9, 5,7-Difluoro-6-{(S)-1-[6-(4-methyl-piperazin-1-yl)-imidazo[1,2-b]pyridazin-3-yl]-ethyl}-quinoline], the IC50 in experiment [1] was determined as 0.0029 µM; in experiment [2], 0.01 µM; at c-Met it was 0.0022 µM.

Consider `C[C@@H](c1c(F)cc2ncccc2c1F)c1cnc2ccc(N3CCN(C=O)CC3)nn12` [Example 13, 4-{3-[(S)-1-(5,7-Difluoro-quinolin-6-yl)-ethyl]-imidazo[1,2-b]pyridazin-6-yl}-piperazine-1-carbaldehyde], for which the IC50 is below 0.003 µM in experiment [1], 0.0092 µM in experiment [2] and 0.0025 µM at c-Met.

Take `C[C@@H](c1c(F)cc2ncccc2c1F)c1cnc2ccc(N3CCN(C(N)=O)CC3)nn12` [Example 16, 4-{3-[(S)-1-(5,7-Difluoro-quinolin-6-yl)-ethyl]-imidazo[1,2-b]pyridazin-6-yl}-piperazine-1-carboxylic acid amide]: the IC50 in experiment [1] is 0.0017 µM; in experiment [2], 0.015 µM; at c-Met, 0.0055 µM.

As to `C[C@@H](c1cc2cnn(C)c2cc1F)c1cnc2ccc(N3CCN(C)C(=O)C3)nn12` [Example 26, 4-{3-[(S)-1-(6-Fluoro-1-methyl-1H-indazol-5-yl)-ethyl]-imidazo[1,2-b]pyridazin-6-yl}-1-methyl-piperazin-2-one], the IC50 worked out at 0.026 µM in experiment [1], 0.066 µM in experiment [2] and 0.01 µM on c-Met.

`CC(=O)N1CCN(c2ccc3ncc([C@@H](C)c4cc5cnn(C)c5cc4F)n3n2)CC1` [Example 29, 1-(4-{3-[(S)-1-(6-Fluoro-1-methyl-1H-indazol-5-yl)-ethyl]-imidazo[1,2-b]pyridazin-6-yl}-piperazin-1-yl)-ethanone]: the IC50 in experiment [1] came to 0.055 µM; in experiment [2], 0.136 µM; at c-Met, 0.025 µM.

The values above are taken from US8389526B2, “3-heteroarylmethyl-imidazo[1,2-b]pyridazin-6-yl derivatives” (Novartis AG, priority 2009, dated 2013).
